The record followed here is ChEMBL document CHEMBL1201862, “PubChem BioAssay data set” (2004).

Test systems include NCI-H460; SK-OV-3; NCI-H23; NCI-H226; IGROV-1; K562; SR; OVCAR-8; KM12; RXF 393; HT-29; A498; HCC 2998; Malme-3M; HOP-62; MOLT-4; M14; MDA-MB-231; DU-145; NCI/ADR-RES.
What all share (assay): DTP human tumour cell line panel, 48 h

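All cell lines were grown in 96-well plates and treated with compound for 48 hours. GI50 is the concentration that inhibits growth by half.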 Activity calls are given as the source filed them. Rule as the data show it: active = GI50 up to about 1.1 µM and inactive = higher.

With `N#Cc1cccc2c1Nc1ccccc1S2`, the GI50 – broadly, the concentration giving 50% growth inhibition – was > 100 µM (inactive) with NCI-H460; > 100 µM (inactive) in the assay on SK-OV-3; > 100 µM (inactive) with NCI-H23; 19.1 µM (inactive) in the assay with NCI-H226; 48.9 µM (inactive) in the assay with IGROV-1; > 100 µM (inactive) in the assay on K562. Also, the GI50 was > 100 µM (inactive) in the assay on SR; 79.3 µM (inactive) with OVCAR-8; > 100 µM (inactive) in the assay on KM12; 32.2 µM (inactive) with RXF 393; > 100 µM (inactive) in the assay on HT-29; > 100 µM (inactive) in the assay with A498. Further, the GI50 with HCC 2998 was > 100 µM (inactive); in the assay on Malme-3M, > 100 µM (inactive); in the assay with HOP-62, 43.4 µM (inactive); in the assay on MOLT-4, > 100 µM (inactive); in the assay with M14, > 100 µM (inactive).

As for `COc1c(I)c(OC)c2c(c1I)O[C@@H]1OCC[C@H]21`, the GI50 in the assay on NCI-H460 is 20.2 µM (inactive); in the assay on SK-OV-3 it was 31.8 µM (inactive); in the assay on NCI-H23, 30.6 µM (inactive); with NCI-H226, 23.6 µM (inactive); in the assay with IGROV-1 it was 37.6 µM (inactive); in the assay on K562 it was 41.2 µM (inactive). In addition, the GI50 in the assay with SR is 15.7 µM (inactive); in the assay on OVCAR-8 it was 33 µM (inactive); in the assay on KM12, 29.7 µM (inactive); with RXF 393, 37.4 µM (inactive); in the assay with HT-29 it was 39.4 µM (inactive); with A498 it was 28.4 µM (inactive). In addition, the GI50 was 30.5 µM (inactive) with HCC 2998; 34 µM (inactive) in the assay on Malme-3M; 17.4 µM (inactive) in the assay with HOP-62; 20 µM (inactive) in the assay on MOLT-4; 24.9 µM (inactive) with M14.

`Cc1nn(C(=O)Cc2ccccc2)c2c1C(c1ccc(/C=C/c3ccccc3)cc1)SC(=N)N2` (centres undefined): the GI50 with NCI-H460, in the assay on SK-OV-3, in the assay on MDA-MB-231, in the assay with NCI-H23, with NCI-H226 and in the assay on IGROV-1 was > 100 µM (inactive) in each case. The GI50 in the assay on K562, with OVCAR-8, in the assay with DU-145, in the assay on KM12, in the assay on HT-29 and in the assay with A498 was > 100 µM (inactive) throughout. The GI50 in the assay with HCC 2998, with Malme-3M, in the assay on HOP-62, in the assay with MOLT-4 and in the assay with M14 was > 100 µM (inactive) throughout.

`COC(=O)C(=C/c1ccc(OC)cc1)/C(C(=O)O)=C(/C)c1ccccc1`: the GI50 in the assay with NCI-H460, with SK-OV-3, in the assay on NCI-H23, with NCI-H226, in the assay with IGROV-1 and in the assay on K562 was > 100 µM (inactive) in each case. The GI50 with SR, with OVCAR-8, in the assay on KM12, in the assay with RXF 393, in the assay on HT-29 and with A498 was > 100 µM (inactive) in each case. Further, the GI50 in the assay with HCC 2998, in the assay with Malme-3M, in the assay with HOP-62, in the assay with MOLT-4 and with M14 was > 100 µM (inactive) in each case.

`CCC1(COC(NC(=O)c2ccccc2)(C(F)(F)F)C(F)(F)F)COC1`: the GI50 in the assay with SK-OV-3, in the assay with NCI-H23, in the assay with IGROV-1, in the assay on K562, with SR and with OVCAR-8 was > 100 µM (inactive) each time. In addition, the GI50 was > 100 µM (inactive) with RXF 393; > 100 µM (inactive) in the assay with HT-29; > 100 µM (inactive) in the assay on A498; > 100 µM (inactive) with HCC 2998; 52.4 µM (inactive) with MOLT-4; > 100 µM (inactive) with M14. Moreover, the GI50 in the assay on NCI/ADR-RES was > 100 µM (inactive).

As to `COC(=O)c1onc(C2OC(C)(C)OC2C(O)COC(c2ccccc2)(c2ccccc2)c2ccccc2)c1C(=O)OC` (centres undefined), the GI50 in the assay on MDA-MB-231 is 71.8 µM (inactive); in the assay on NCI-H23, 72.3 µM (inactive); in the assay on NCI-H226, > 100 µM (inactive); in the assay on K562 it was 72.8 µM (inactive); in the assay on SR, 84.3 µM (inactive); with OVCAR-8, > 100 µM (inactive). The GI50 in the assay on DU-145, with KM12, in the assay with RXF 393, with HT-29, with A498 and in the assay on HCC 2998 was > 100 µM (inactive) each time. Further, the GI50 in the assay with Malme-3M is > 100 µM (inactive); with HOP-62 it was > 100 µM (inactive); with MOLT-4, 29.4 µM (inactive); in the assay with M14 it was > 100 µM (inactive).

Turning to `COCOc1ccc(C(=O)C(C)c2ccc(OCOC)cc2OCOC)c(O)c1` (centres undefined), the GI50 in the assay on NCI-H460 is > 100 µM (inactive); in the assay on SK-OV-3, > 100 µM (inactive); in the assay with NCI-H23 it was 60.8 µM (inactive); in the assay on IGROV-1 it was > 100 µM (inactive); in the assay on SR it was 40.7 µM (inactive); in the assay with OVCAR-8, > 100 µM (inactive). Besides, the GI50 with DU-145 was > 100 µM (inactive); in the assay on RXF 393 it was 37.2 µM (inactive); with HT-29, > 100 µM (inactive); in the assay with A498 it was > 100 µM (inactive); in the assay on HCC 2998, > 100 µM (inactive); in the assay on Malme-3M, > 100 µM (inactive). Besides, the figures for the GI50 in the assay with HOP-62, with MOLT-4 and in the assay on M14 were > 100 µM (inactive), 42.6 µM (inactive) and > 100 µM (inactive), respectively.

Regarding `Cc1ccccc1-n1c(CCl)nc2ccc(Br)cc2c1=O`, the GI50 in the assay with NCI-H460 was 13.5 µM (inactive); with SK-OV-3, 29.5 µM (inactive); in the assay on NCI-H23, 9.91 µM (inactive); in the assay with NCI-H226, 8.87 µM (inactive); with IGROV-1, 14.3 µM (inactive); in the assay with K562, 0.354 µM (active). The GI50 with SR was 3.73 µM (inactive); in the assay with OVCAR-8 it was 12.5 µM (inactive); in the assay with KM12, 13.6 µM (inactive); in the assay with RXF 393, 10.2 µM (inactive); in the assay on HT-29, 4.29 µM (inactive); in the assay on A498 it was 30.1 µM (inactive). For the same molecule, the GI50 in the assay with HCC 2998 is 16.8 µM (inactive); in the assay on Malme-3M it was 17.3 µM (inactive); with HOP-62, 23.4 µM (inactive); with MOLT-4, 19.8 µM (inactive); with M14, 0.679 µM (active).

With `CC[C@H]1C=CCC[C@@]2(C[C@@H]3CC[C@H]4[C@H](C(=O)OCCCCCCCCCCCCCCCC(=O)N(CCCN)C[C@@H](O)CCN)[C@]5(CCC[C@@H](C)O5)NC(=[N+]34)N2)O1`, the concentration for 50% growth inhibition (GI50) in the assay on NCI-H460 is 0.52 µM (active); in the assay on SK-OV-3 it was 1.65 µM (inactive); with NCI-H23, 1.34 µM (inactive); in the assay on NCI-H226, 1.04 µM (active); in the assay with IGROV-1, 0.615 µM (active); with K562, 0.256 µM (active). The GI50 in the assay with SR is 0.323 µM (active); in the assay with OVCAR-8 it was 0.693 µM (active); with DU-145, 1.1 µM (active); with KM12 it was 0.509 µM (active); with RXF 393, 1.6 µM (inactive); in the assay with HT-29, 0.387 µM (active). In addition, the GI50 is 1.45 µM (inactive) with A498; 0.575 µM (active) in the assay on HCC 2998; 0.196 µM (active) in the assay on Malme-3M; 1.26 µM (inactive) in the assay with HOP-62; 0.27 µM (active) in the assay on MOLT-4; 0.231 µM (active) in the assay with M14. Further, in the assay with NCI/ADR-RES, the GI50 is 1.63 µM (inactive).

Consider `Cc1cccc(C)c1NC(=O)C(=O)Nn1c(NN)nc2ccccc2c1=O`, for which the GI50 in the assay on NCI-H460, in the assay on SK-OV-3, in the assay on NCI-H23, in the assay on NCI-H226, with IGROV-1 and with K562 was > 100 µM (inactive) throughout. In addition, the GI50 with SR, with OVCAR-8, in the assay with KM12, in the assay with RXF 393, in the assay with HT-29 and with A498 was > 100 µM (inactive) each time. For the same molecule, the GI50 in the assay with HCC 2998, in the assay on Malme-3M, with HOP-62, in the assay with MOLT-4 and in the assay on M14 was > 100 µM (inactive) each time.

Turning to `Cc1cccc(NS(=O)(=O)c2ccc(/N=N/c3c(O)c(C(=O)O)cc4ccccc34)cc2)n1`, the GI50 in the assay on NCI-H460, with SK-OV-3, in the assay with MDA-MB-231, in the assay on NCI-H23, in the assay with NCI-H226 and in the assay with IGROV-1 was > 100 µM (inactive) in each case. In addition, the GI50 with K562, with SR, in the assay with OVCAR-8, in the assay on KM12, in the assay on RXF 393 and in the assay with HT-29 was > 100 µM (inactive) each time. Further, the GI50 with HCC 2998, in the assay with Malme-3M, in the assay on HOP-62, in the assay on MOLT-4, in the assay with M14 and in the assay with NCI/ADR-RES was > 100 µM (inactive) in each case.

`N=C(N)C1CN(CCc2c[nH]cn2)C(=O)NC1=O` (centres undefined): the GI50 in the assay on NCI-H460, with SK-OV-3, in the assay with NCI-H23, with IGROV-1, in the assay on SR and in the assay on OVCAR-8 was > 100 µM (inactive) each time. Besides, the GI50 in the assay on DU-145, in the assay on KM12, in the assay on RXF 393, with HT-29, with A498 and with HCC 2998 was > 100 µM (inactive) throughout. The GI50 is 36 µM (inactive) in the assay with Malme-3M, > 100 µM (inactive) with HOP-62, > 100 µM (inactive) in the assay on MOLT-4 and > 100 µM (inactive) with M14.
